Measured values published in patent US20050020643A1, “Pyridinyl amides and compositions thereof for use as fungicides” (priority 2002, published 2005).
Read-outs that look alike come from different tables or passages of the source. Marks after values point to notes of the source that are not given here.

How the values were obtained:
Format in all cases: in vivo
Puccinia recondita = test: Test B: preventive control of wheat leaf rust on wheat seedlings; conditions: sprayed day before inoculation, rate not given
Phytophthora infestans [1] = tested on: Phytophthora infestans
Plasmopara viticola [2] = test: Test E: preventive control of grape downy mildew on grape seedlings
Phytophthora infestans [3] = test: whole plant or invertebrate; conditions: for Test F disease control rating: 100 g/ha on potato seedlings, sprayed day after inoculation; for pest or weed control at 100 g/ha: Phytophthora infestans, in Solanum tuberosum, 120 h, read-out: Test F disease control rating
[4] = tested on: Erysiphe graminis f. sp. tritici; test: Test A: preventive control of wheat powdery mildew on wheat seedlings; parameters: concentration or dose not given beside the values; conditions: sprayed day before inoculation, rated after 7 days, rate not given
Plasmopara viticola [5] = test: Test G: curative control of grape downy mildew on grape seedlings (sprayed after inoculation); conditions: sprayed day after inoculation
[6] = tomato (or potato) seedlings, sprayed day before inoculation, rate not given
[7] = sprayed day before inoculation, rate not given

| Structure (SMILES) | Test B disease control rating (Puccinia recondita) [%] | Test D disease control rating (Phytophthora infestans [1]; [6]) [%] | Test E disease control rating (Plasmopara viticola [2]; [7]) [%] | Test F disease control rating (Phytophthora infestans [3]) [%] | Test A disease control rating [4] [%] | Test G disease control rating (Plasmopara viticola [5]; rate not given) [%] | pest or weed control at 100 g/ha (Phytophthora infestans [3]) [%] | Test D disease control rating (Phytophthora infestans [1]; 100 g/ha on potato seedlings) | Test E disease control rating (Plasmopara viticola [2]; rate 100 g/ha (footnote *)) | Test G disease control rating (Plasmopara viticola [5]; rate 100 g/ha (footnote *)) |
| --- | --- | --- | --- | --- | --- | --- | --- | --- | --- | --- |
| Cc1cnc(C(C)NC(=O)c2c(Cl)ccnc2Cl)c(C)c1 (stereo not drawn) [Compound 10] | 0 | 99 | 57 | 0 | 0 | 0 | – | – | – | – |
| Cc1cc(Cl)c(C(=O)NCc2ncc(Br)cc2Br)c(Cl)n1 [Compound 18] | – | 100 | 100 | 77 | 0 | 100 | – | – | – | – |
| Cc1cc(Cl)c(C(=O)NC(C)c2ncc(Cl)cc2Cl)c(Cl)n1 (stereo not drawn) [Compound 20, 2,4-Dichloro-N-[1-(3,5-dichloro-2-pyridinyl)ethyl]-6-methyl-3-pyridinecarboxamide] | – | 100 | 100 | – | 0 | 100 | 53 | – | – | – |
| Cc1ccnc(Br)c1C(=O)NC(C)c1ncc(Br)cc1Cl (stereo not drawn) [Compound 29] | – | 99 | 100 | 57 | 0 | 94 | – | – | – | – |
| Cc1cc(Cl)c(C(=O)NC(C)c2ncc(Br)cc2Br)c(Cl)n1 (stereo not drawn) [Compound 32] | – | 100 | 100 | 82 | 0 | 99 | – | – | – | – |
| CC(NC(=O)c1c(I)ccnc1Cl)c1ncc(Cl)cc1Cl (stereo not drawn) [Compound 27] | – | 100 | 100 | 0 | 0 | 100 | – | – | – | – |
| CC(NC(=O)c1c(Cl)ccnc1Cl)c1ncc(Br)cc1I (stereo not drawn) [Compound 23] | – | 100 | 100 | 98 | 0 | 96 | – | – | – | – |
| CC(NC(=O)c1c(Br)ccnc1Cl)c1ncc(Br)cc1Cl (stereo not drawn) [Compound 28] | – | 99 | 100 | 100 | 0 | 100 | – | – | – | – |
| Cc1cc(Cl)c(C(=O)NCc2ncc(Cl)cc2Cl)c(Cl)n1 [Compound 19, 2,4-Dichloro-N-[(3,5-dichloro-2-pyridinyl)methyl]-6-methyl-3-pyridinecarboxamide] | – | 99 | 100 | – | 0 | 100 | 0 | – | – | – |
| O=C(NCc1ncc(Br)cc1Cl)c1c(I)ccnc1Cl [Compound 24] | – | 100 | 100 | 0 | 0 | 84 | – | – | – | – |
| Cc1cc(Cl)c(C(=O)NCc2ncc(I)cc2Br)c(Cl)n1 [Compound 42] | – | 100 | 100 | 93 | 0 | 100 | – | – | – | – |
| Cc1cc(Cl)c(C(=O)NC(C)c2ncc(Cl)cc2Br)c(Cl)n1 (stereo not drawn) [Compound 41] | – | 100 | 100 | 97 | 0 | 100 | – | – | – | – |
| CC(NC(=O)c1c(I)ccnc1Cl)c1ncc(Br)cc1Cl (stereo not drawn) [Compound 25] | – | 100 | 100 | 0 | 0 | 72 | – | – | – | – |
| COc1cnc(C(C)NC(=O)c2c(Cl)cc(C)nc2Cl)c(Cl)c1 (stereo not drawn) [Compound 21] | – | 99 | 100 | 53 | 0 | 77 | – | – | – | – |
| CC(NC(=O)c1c(I)ccnc1F)c1ncc(Br)cc1Cl (stereo not drawn) [Compound 33] | – | 100 | 100 | 100 | 0 | 100 | – | – | – | – |
| CC(NC(=O)c1c(I)ccnc1Cl)c1ncc(Br)cc1Br (stereo not drawn) [Compound 30] | – | 100 | 100 | 44 | 0 | 93 | – | – | – | – |
| O=C(NCc1ncc(Br)cc1Br)c1c(Cl)ccnc1Cl [Compound 17] | – | 100 | 99 | 73 | 0 | 98 | – | – | – | – |
| O=C(NCc1ncc(Cl)cc1Cl)c1c(I)ccnc1Cl [Compound 26] | – | 100 | 81 | 0 | 0 | 99 | – | – | – | – |
| CC(NC(=O)c1c(I)ccnc1F)c1ncc(Br)cc1Br (stereo not drawn) [Compound 31] | – | 100 | 100 | 79 | 0 | 100 | – | – | – | – |
| CC(NC(=O)c1c(Br)ccnc1F)c1ncc(Br)cc1Cl (stereo not drawn) [Compound 37] | – | 100 | 100 | 100 | 0 | 100 | – | – | – | – |
| COc1cnc(C(C)NC(=O)c2c(Cl)ccnc2Cl)c(Cl)c1 (stereo not drawn) [Compound 22] | – | 100 | 100 | 98 | 0 | 94 | – | – | – | – |
| Cc1cc(Cl)c(C(=O)NCc2ncc(Cl)cc2Br)c(Cl)n1 [Compound 40] | – | 100 | 100 | 95 | 0 | 99 | – | – | – | – |
| CC(NC(=O)c1c(Cl)ccnc1Cl)c1ncc(I)cc1Br (stereo not drawn) [Compound 36] | – | – | – | 92 | 0 | – | – | 100# % | 100* % | 92* % |
| CC(NC(=O)c1c(Br)ccnc1F)c1ncc(Br)cc1Br (stereo not drawn) [Compound 39] | – | 100 | 100 | 100 | 0 | 100 | – | – | – | – |
| Cc1cc(Cl)c(C(=O)NC(C)c2ncc(I)cc2Br)c(Cl)n1 (stereo not drawn) [Compound 43] | – | 100 | 100 | 90 | 0 | 100 | – | – | – | – |
| CC(NC(=O)c1c(Br)ccnc1F)c1ncc(Cl)cc1Cl (stereo not drawn) [Compound 38] | – | 100 | 100 | 100 | 0 | 100 | – | – | – | – |
| CC(NC(=O)c1c(Cl)ccnc1Cl)c1ncc(Cl)cc1Br (stereo not drawn) [Compound 34] | – | 100 | 100 | 99 | 0 | 100 | – | – | – | – |
| O=C(NCc1ncc(I)cc1Br)c1c(Cl)ccnc1Cl [Compound 35] | – | – | – | 96 | 0 | – | – | 100# % | 99* % | 50* % |
